Measured values from patent publication US20230382925A1, “MODULATORS OF CYSTIC FIBROSIS TRANSMEMBRANE CONDUCTANCE REGULATOR” (VERTEX PHARMACEUTICALS INCORPORATED, priority 2020, published 2023).
Where two headings read alike, the source gives them in different places.

Molecular target: CFTR (Homo sapiens, UniProt P13569)
Experiment: Membrane Potential Dye, Enteroid Assay B
Format: cell-based
Procedure, shortened: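 Activity given as % of a triple-combination reference (1 μM and 3 μM correctors, 300 nM acute potentiator). Enteroids were preincubated 18-24 h with compound; chloride efflux then measured 15 min by methyl oxonol fluorescence after forskolin/IBMX/Compound III stimulation in chloride-free buffer containing CaCCinh-A01 and Chicago Sky Blue.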

[1] = Table 10, read-out: Ent. B EC50

Sequence of CFTR (P13569 with tags, fused parts or gaps DEL508-508): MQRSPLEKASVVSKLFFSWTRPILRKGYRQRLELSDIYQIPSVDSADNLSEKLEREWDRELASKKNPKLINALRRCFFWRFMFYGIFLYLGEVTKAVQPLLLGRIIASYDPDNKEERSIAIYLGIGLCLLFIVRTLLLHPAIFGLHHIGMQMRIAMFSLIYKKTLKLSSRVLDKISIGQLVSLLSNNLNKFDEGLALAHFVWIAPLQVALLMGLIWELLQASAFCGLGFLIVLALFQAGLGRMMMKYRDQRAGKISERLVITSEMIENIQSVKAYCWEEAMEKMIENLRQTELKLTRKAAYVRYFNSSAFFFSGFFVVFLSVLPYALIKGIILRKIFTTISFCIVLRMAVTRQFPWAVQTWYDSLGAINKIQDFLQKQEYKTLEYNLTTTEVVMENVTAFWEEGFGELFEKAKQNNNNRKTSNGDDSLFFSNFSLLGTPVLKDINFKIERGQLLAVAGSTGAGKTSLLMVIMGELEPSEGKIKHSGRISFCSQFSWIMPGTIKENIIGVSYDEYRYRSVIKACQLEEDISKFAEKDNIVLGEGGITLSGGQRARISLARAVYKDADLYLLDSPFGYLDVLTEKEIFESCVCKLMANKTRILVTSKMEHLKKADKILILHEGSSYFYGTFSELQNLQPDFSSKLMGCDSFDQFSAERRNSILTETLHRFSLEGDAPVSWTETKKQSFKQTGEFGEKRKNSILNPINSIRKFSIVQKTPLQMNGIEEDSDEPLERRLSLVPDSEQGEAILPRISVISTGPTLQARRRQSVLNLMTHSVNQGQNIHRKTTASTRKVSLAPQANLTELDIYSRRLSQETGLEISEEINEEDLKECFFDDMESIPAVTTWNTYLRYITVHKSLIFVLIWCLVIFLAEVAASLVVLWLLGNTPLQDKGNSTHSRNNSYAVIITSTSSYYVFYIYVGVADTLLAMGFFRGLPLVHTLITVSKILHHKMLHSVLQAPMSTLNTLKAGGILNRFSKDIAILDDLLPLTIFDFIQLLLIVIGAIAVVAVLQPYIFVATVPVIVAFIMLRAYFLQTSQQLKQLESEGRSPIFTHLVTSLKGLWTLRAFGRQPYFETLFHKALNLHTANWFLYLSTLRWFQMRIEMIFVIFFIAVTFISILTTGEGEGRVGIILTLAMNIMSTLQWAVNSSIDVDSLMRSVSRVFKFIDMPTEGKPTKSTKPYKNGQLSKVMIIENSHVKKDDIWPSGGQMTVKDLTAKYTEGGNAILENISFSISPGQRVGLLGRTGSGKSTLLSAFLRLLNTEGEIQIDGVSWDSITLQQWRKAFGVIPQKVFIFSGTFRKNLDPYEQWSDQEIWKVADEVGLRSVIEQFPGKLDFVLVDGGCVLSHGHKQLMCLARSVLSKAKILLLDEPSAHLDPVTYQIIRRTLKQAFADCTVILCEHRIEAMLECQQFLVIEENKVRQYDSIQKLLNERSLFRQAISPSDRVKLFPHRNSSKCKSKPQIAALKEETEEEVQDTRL

| Compound | Ent. B Max Activity (%) (Table 10) | EC50 [1] [µM] | Ent. B Max Activity (%) (Table 9) | EC50 (Table 9, read-out: Ent. B EC50) [µM] | other results |
| --- | --- | --- | --- | --- | --- |
| [H][C@]1(N2C(=O)c3cccc(c3)S(=O)(=O)Nc3nc(cc(-c4c(C)cccc4C)n3)OC[C@H]2CC2(C(F)(F)F)CC2)C[C@@]2(C[C@H](N(C)C)C2)C1 (stereo partly shown) [Compound 298] | – | – | – | – | Ent. B Max Activity (%): +++ (+++ is >60%); EC50 (read-out: Ent. B EC50): < 1 µM |
| Cc1cccc(C)c1-c1cc2nc(n1)NS(=O)(=O)c1cccc(n1)C(=O)N(C1CC3(CCN(C)CC3)C1)[C@H](CC(C)C)CO2 [Compound 390] | – | – | – | – | Ent. B Max Activity (%): +++ (+++ is >60%); EC50 (read-out: Ent. B EC50): < 1 µM |
| CCN(C(=O)OC)C1CC2(C1)CC(N1C(=O)c3cccc(c3)S(=O)(=O)Nc3nc(cc(-c4c(C)cccc4C)n3)OC[C@H]1CC(C)(C)C)C2 (stereo in doubt) [Compound 236] | ++ (++ is 30-60%) | < 1 | – | – | – |
| COC(=O)NC1CC(N2C(=O)c3cccc(c3)S(=O)(=O)Nc3nc(cc(-c4c(C)cccc4C)n3)OC[C@H]2CC2(C(F)(F)F)CC2)C1 (single isomer, unassigned) [Compound 58] | – | – | +++ (+++ is >60%) | < 1 | – |
| Cc1cccc(C)c1-c1cc2nc(n1)NS(=O)(=O)c1cccc(c1)C(=O)N([C@H]1C[C@@H](NC(=O)OC(C)(C)C)C1)[C@H](CC1(C(F)(F)F)CC1)CO2 (single isomer, unassigned) [Compound 55] | – | – | +++ (+++ is >60%) | < 1 | – |
| Cc1cccc(C)c1-c1cc2nc(n1)NS(=O)(=O)c1cccc(c1)C(=O)N(C1CC3(CCN(C(=O)[C@H](C)O)CC3)C1)[C@H](CC(C)C)CO2 [Compound 456] | – | – | +++ (+++ is >60%) | < 1 | – |
| COCCN(C)C(=O)C1CC(N2C(=O)c3cccc(c3)S(=O)(=O)Nc3nc(cc(-c4c(C)cccc4C)n3)OC[C@H]2CC(C)C)C1 (stereo partly shown) [Compound 306] | – | – | – | – | Ent. B Max Activity (%): +++ (+++ is >60%); EC50 (read-out: Ent. B EC50): < 1 µM |
| Cc1cccc(C)c1-c1cc2nc(n1)NS(=O)(=O)c1cccc(c1)C(=O)N(C1CC3(CCN(C4CCC4)CC3)C1)[C@H](CC(C)C)CO2 [Compound 280] | – | – | +++ (+++ is >60%) | < 1 | – |
| Cc1cccc(C)c1-c1cc2nc(n1)NS(=O)(=O)c1cccc(c1)C(=O)N(C1CC(NC(=O)OC(C)C)C1)[C@H](CC1(C(F)(F)F)CC1)CO2 (single isomer, unassigned) [Compound 60] | – | – | +++ (+++ is >60%) | < 1 | – |
| COC(=O)NC1(C)CC(N2C(=O)c3cccc(c3)S(=O)(=O)Nc3nc(cc(-c4c(C)cccc4C)n3)OC[C@H]2CC(C)(C)C)C1 (single isomer, unassigned) [Compound 171] | +++ (+++ is >60%) | < 1 | – | – | – |
| CCC(=O)NC1(C)CC(N2C(=O)c3cccc(c3)S(=O)(=O)Nc3nc(cc(-c4c(C)cccc4C)n3)OC[C@H]2CC(C)(C)C)C1 (stereo partly shown) [Compound 242] | ++ (++ is 30-60%) | < 1 | – | – | – |
| COC(=O)N(C)C1CC(N2C(=O)c3cccc(c3)S(=O)(=O)Nc3nc(cc(-c4c(C)cccc4C)n3)OC[C@H]2CC(C)(C)C)C1 (single isomer, unassigned) [Compound 170] | ++ (++ is 30-60%) | – | – | – | – |
| Cc1cccc(C)c1-c1cc2nc(n1)NS(=O)(=O)c1cccc(c1)C(=O)N(C1CC3(C1)CN(C(=O)OC(C)C)C3)[C@H](CC1(C(F)(F)F)CC1)CO2 [Compound 133, Propan-2-yl 6-[(11R)-6-(2,6-dimethylphenyl)-2,2,13-trioxo-11-{[1-(trifluoromethyl)cyclopropyl]methyl}-9-oxa-2λ^6-thia-3,5,12,19-tetraazatricyclo[12.3.1.14,8]nonadeca-1(17),4,6,8(19),14(18),15-hexaen-12-yl]-2-azaspiro[3.3]heptane-2-carboxylate] | – | – | +++ (+++ is >60%) | < 1 | – |
| Cc1cccc(C)c1-c1cc2nc(n1)NS(=O)(=O)c1cccc(c1)C(=O)N(C1CCN(C(=O)OC(C)C)C1)[C@H](CC(C)C)CO2 (single isomer, unassigned) [Compound 39] | – | – | – | – | Ent. B Max Activity (%): +++ (+++ is >60%); EC50 (read-out: Ent. B EC50): < 1 µM |
| Cc1cccc(C)c1-c1cc2nc(n1)NS(=O)(=O)c1cccc(c1)C(=O)N(C1CC(OC(F)(F)F)C1)[C@H](CC(C)C)CO2 (stereo in doubt) [Compound 214] | – | – | +++ (+++ is >60%) | < 1 | – |
| CCC(=O)NC1(C)CC(N2C(=O)c3cccc(c3)S(=O)(=O)Nc3nc(cc(-c4c(C)cccc4C)n3)OCC2CC(C)(C)C)C1 (stereo not shown) [Compound 243] | +++ (+++ is >60%) | < 1 | – | – | – |
| Cc1cccc(C)c1-c1cc2nc(n1)NS(=O)(=O)c1cccc(c1)C(=O)N(C1CC(N(C)C3CCC3)C1)[C@H](CC(C)C)CO2 (stereo partly shown) [Compound 376] | – | – | +++ (+++ is >60%) | < 1 | – |
| Cc1cccc(C)c1-c1cc2nc(n1)NS(=O)(=O)c1cccc(c1)C(=O)N(C1CC3(CCN(C(=O)N(C)C)CC3)C1)[C@H](CC(C)C)CO2 [Compound 26, 2-[(11R)-6-(2,6-Dimethylphenyl)-11-isobutyl-2,2,13-trioxo-9-oxa-2λ^6-thia-3,5,12,19-tetrazatricyclo[12.3.1.14,8]nonadeca-1(18),4(19),5,7,14,16-hexaen-12-yl]-N,N-dimethyl-7-azaspiro[3.5]nonane-7-carboxamide] | – | – | +++ (+++ is >60%) | < 1 | – |

The next lines start with results.

| Ent. B Max Activity (%) (Table 10) | EC50 [1] [µM] | Ent. B Max Activity (%) (Table 9) | EC50 (Table 9, read-out: Ent. B EC50) [µM] | Compound | other results |
| --- | --- | --- | --- | --- | --- |
| ++ (++ is 30-60%) | < 1 | – | – | [H][C@]1(N2C(=O)c3cccc(c3)S(=O)(=O)Nc3nc(cc(-c4c(C)cccc4C)n3)OC[C@H]2CC(C)(C)C)C[C@@]2(C[C@H](NC(=O)OC3CCC3)C2)C1 (stereo in doubt) [Compound 355] | – |
| ++ (++ is 30-60%) | < 1 | – | – | Cc1cccc(C)c1-c1cc2nc(n1)NS(=O)(=O)c1cccc(c1)C(=O)N([C@H]1C[C@](C)(NC(=O)OC(C)C)C1)[C@H](CC(C)(C)C)CO2 (stereo in doubt) [Compound 244] | – |
| + (+ is <300%) | < 1 | – | – | COC(=O)N1CCC(n2cc(N3C(=O)c4cccc(c4)S(=O)(=O)Nc4nc(cc(-c5c(C)cccc5C)n4)OC[C@H]3CC(C)(C)C)cn2)CC1 [Compound 223] | – |
| +++ (+++ is >60%) | < 1 | – | – | Cc1cccc(C)c1-c1cc2nc(n1)NS(=O)(=O)c1cccc(c1)C(=O)N(C1CC3(C1)CC(C)(O)C3)[C@H](CC(C)(C)C)CO2 (single isomer, unassigned) [Compound 119] | – |
| – | – | +++ (+++ is >60%) | < 1 | Cc1cccc(C)c1-c1cc2nc(n1)NS(=O)(=O)c1cccc(c1)C(=O)N(C1CC(NC3CCOCC3)C1)[C@H](CC(C)C)CO2 (stereo partly drawn) [Compound 71, (11R)-6-(2,6-dimethylphenyl)-11-isobutyl-2,2-dioxo-12-[3-(tetrahydropyran-4-ylamino)cyclobutyl]-9-oxa-2λ^6-thia-3,5,12,19-tetrazatricyclo[12.3.1.14,8]nonadeca-1(18),4(19),5,7,14,16-hexaen-13-one] | – |
| – | – | +++ (+++ is >60%) | < 1 | Cc1cccc(C)c1-c1cc2nc(n1)NS(=O)(=O)c1cccc(c1)C(=O)N(C1CC3(CC(NC(=O)OC(C)C)C3)C1)[C@H](CC(C)(C)C)CO2 (single isomer, unassigned) [Compound 93] | – |
| +++ (+++ is >60%) | < 1 | – | – | Cc1cccc(C)c1-c1cc2nc(n1)NS(=O)(=O)c1cccc(c1)C(=O)N([C@H]1C[C@@H](CC(C)(C)O)C1)[C@H](CC(C)(C)C)CO2 (single isomer, unassigned) [Compound 153] | – |
| +++ (+++ is >60%) | < 1 | – | – | Cc1cccc(C)c1-c1cc2nc(n1)NS(=O)(=O)c1cccc(c1)C(=O)N([C@H]1C[C@@H](NC34CC(CO)(C3)C4)C1)[C@H](CC(C)C)CO2 (stereo in doubt) [Compound 358] | – |
| +++ (+++ is >60%) | < 1 | – | – | CCC(=O)NC1CC2(C1)CC(N1C(=O)c3cccc(c3)S(=O)(=O)Nc3nc(cc(-c4c(C)cccc4C)n3)OC[C@H]1CC(C)(C)C)C2 (stereo partly shown) [Compound 353] | – |
| +++ (+++ is >60%) | < 1 | – | – | [H][C@]1(N2C(=O)c3cccc(c3)S(=O)(=O)Nc3nc(cc(-c4c(C)cccc4C)n3)OC[C@H]2CCC(C)C)C[C@@]2(C[C@H](C(C)(C)O)C2)C1 (single isomer, unassigned) [Compound 5] | – |
| +++ (+++ is >60%) | < 1 | – | – | Cc1cccc(C)c1-c1cc2nc(n1)NS(=O)(=O)c1cccc(c1)C(=O)N(c1cnn(C)c1)[C@H](CC(C)C)CO2 [Compound 97, (11R)-6-(2,6-Dimethylphenyl)-11-isobutyl-12-(1-methylpyrazol-4-yl)-2,2-dioxo-9-oxa-2λ^6-thia-3,5,12,19-tetrazatricyclo[12.3.1.14,8]nonadeca-1(18),4(19),5,7,14,16-hexaen-13-one] | – |
| – | – | ++ (++ is 30-60%) | 1 to 3 | Cc1cccc(C)c1-c1cc2nc(n1)NS(=O)(=O)c1cccc(c1)C(=O)N(C1CCN(C)CC1)CC(CC(C)C)CO2 (stereo not shown) [Compound 440] | – |
| – | – | +++ (+++ is >60%) | < 1 | Cc1cccc(C)c1-c1cc2nc(n1)NS(=O)(=O)c1cccc(c1)C(=O)N(C1CC3(CCN(C(=O)COC(C)(C)C)CC3)C1)[C@H](CC(C)C)CO2 [Compound 460] | – |
| ++ (++ is 30-60%) | < 1 | – | – | Cc1cccc(C)c1-c1cc2nc(n1)NS(=O)(=O)c1cccc(c1)C(=O)N([C@H]1C[C@@H](N3CCOC3=O)C1)[C@H](CC(C)(C)C)CO2 (single isomer, unassigned) [Compound 167] | – |
| – | – | +++ (+++ is >60%) | < 1 | Cc1cccc(C)c1-c1cc2nc(n1)NS(=O)(=O)c1cccc(c1)C(=O)N(C1CC(N3CCN(C)C(=O)C3)C1)[C@H](CC(C)C)CO2 (stereo partly shown) [Compound 384] | – |
| – | – | +++ (+++ is >60%) | < 1 | Cc1cccc(C)c1-c1cc2nc(n1)NS(=O)(=O)c1cccc(c1)C(=O)N([C@H]1C[C@]3(C[C@H](NC(C)C)C3)C1)[C@H](CC1(C(F)(F)F)CC1)CO2 (stereo partly shown) [Compound 265] | – |
